From ChEMBL document CHEMBL1132782 come the findings set out here.

This assay has as its target Prothrombin (Homo sapiens) (UniProt P00734). The assay is described as follows: Inhibitory activity against human thrombin.
Regarding `c1ccc2c(c1)cc(-c1ccc(OCCN3CCCC3)cc1)n2Cc1ccc(OCCN2CCCC2)cc1`, the K ass was 6.27e+06 l M-1. For `COC(=O)CCCOc1ccc(-c2sc3ccccc3c2Cc2ccc(CN3CCCC3)c(OC)c2)cc1` the value was 7.68e+06 l M-1; for `COc1cc(Cn2c(-c3ccc(OCCN4CCCC4)cc3)cc3ccncc32)ccc1C(=O)N1CCCC1`, 5.97e+07 l M-1; for `O=C(c1ccc(OCCN2CCCC2)cc1)c1c(-c2ccc(OCCN3CCCC3)cc2)sc2ccccc12`, 410000 l M-1. Take `COC(=O)CCCOc1ccc(-c2cc3ccccc3n2Cc2ccc(CN3CCCC3)c(OC)c2)cc1`: the K ass was 2.47e+07 l M-1. The value for `COc1cc(Cc2c(-c3ccc(OCCN4CCCC4)cc3)sc3cc(O)ccc23)ccc1CN1CCCC1` was 8.15e+08 l M-1; that for `COc1cc(Cn2c(-c3ccc(OCCN4CCCC4)cc3)cc3cnccc32)ccc1C(=O)N1CCCC1` was 8.37e+07 l M-1. The value for `COc1cc(Cn2c(-c3ccc(OCCCC(=O)O)cc3)cc3ccccc32)ccc1CN1CCCC1` was 6.41e+06 l M-1; that for `COc1cc(Cn2c(-c3ccc(OCCN4CCCC4)cc3)nc3cc(O)ccc32)ccc1Cn1ccnc1` was 9.6e+06 l M-1; that for `COc1cc(Cc2c(-c3ccc(OCCN4CCCC4)cc3)sc3ccccc23)ccc1CN1CCCC1` was 1.26e+08 l M-1. For `COc1cc(Cn2c(-c3ccc(OCCN4CCCC4)cc3)nc3cc(O)ccc32)ccc1NCc1ccccc1` the value was 1.65e+07 l M-1; for `c1ccc2c(Cc3ccc(OCCN4CCCC4)cc3)c(-c3ccc(OCCN4CCCC4)cc3)[nH]c2c1`, 42000 l M-1; for `COc1cc(Cn2c(-c3ccc(OCCn4cccn4)cc3)nc3ccccc32)ccc1CN1CCCC1`, 1.46e+06 l M-1.

In the case of `COc1cc(Cn2c(-c3ccc(OCCN4CCCC4)cc3)nc3cc(O)ccc32)ccc1Cn1ccnn1`, the K ass is 1.02e+07 l M-1. As for `COc1cc(Cn2c(-c3ccc(OCCCCO)cc3)cc3ccccc32)ccc1CN1CCCC1`, the K ass is 3.37e+07 l M-1. Regarding `COc1cc(Cc2c(-c3ccc(OCCCC(=O)O)cc3)sc3ccccc23)ccc1CN1CCCC1`, the K ass is 3.91e+06 l M-1. `COc1cc(Cn2c(-c3ccc(OCCN4CCCC4)cc3)nc3cc(O)ccc32)ccc1Cn1cccn1`: the K ass is 1.2e+07 l M-1.

With `COc1cc(Cn2c(-c3ccc(OCCN4CCCC4)cc3)nc3ccccc32)ccc1CN1CCCC1`, the K ass is 1.19e+07 l M-1. The value for `COc1cc(Cn2c(-c3ccc(OCCN4CCCC4)cc3)nc3cc(CN)ccc32)ccc1CN1CCCC1` was 4.49e+06 l M-1; that for `COc1cc(Cn2c(-c3ccc(OCCN4CCCC4)cc3)cc3ccccc32)ccc1CN1CCCC1` was 1.97e+08 l M-1. The value for `COc1cc(Cn2c(-c3ccc(OCCN4CCCC4)cc3)nc3cc(CO)ccc32)ccc1CN1CCCC1` was 1.93e+06 l M-1; that for `c1ccc2c(Cc3ccc(OCCN4CCCC4)cc3)c(-c3ccc(OCCN4CCCC4)cc3)oc2c1` was 974000 l M-1. The value for `c1ccc2c(c1)nc(-c1ccc(OCCN3CCCC3)cc1)n2Cc1ccc(OCCN2CCCC2)cc1` was 332000 l M-1; that for `COc1cc(Cn2c(-c3ccc(OCCN4CCCC4=O)cc3)nc3ccccc32)ccc1CN1CCCC1` was 1.5e+07 l M-1; that for `COc1cc(Cn2c(-c3ccc(OCCN4CCCC4)cc3)cc3cnccc32)ccc1CN1CCCC1` was 7.39e+07 l M-1. For `COc1cc(Cn2c(-c3ccc(OCCN4CCCC4)cc3)nc3cc(O)ccc32)ccc1CN1CCCC1`, the K ass is 9.72e+06 l M-1. For `COc1cc(Cc2c(-c3ccc(OCCCCO)cc3)sc3ccccc23)ccc1CN1CCCC1` the value was 1.49e+07 l M-1.
